We go through twelve molecules from patent publication US10357473B2, “Method for treating a prolifitive disorder with a cis-diamine platinum complex” (KING FAHD UNIVERSITY OF PETROLEUM AND MINERALS, priority 2017, dated 2019).

What all share (format): cell-based
The test system of data set [1] is A549 (human lung carcinoma) cell line. As to the kind of experiment: In vitro cytotoxic activity (MTT assay) against A549 cells. The following applies: for IC50: MTT assay, cultures incubated 24 h with compound, ± standard deviation, three independent experiments; for in vitro cytotoxicity against A549 compared in words with cisplatin / carboplatin: A549 cells, comparison of IC50 values. As to the method:
(§1) The cis-[Pt(NH3)2(thione)2].2NO3 complexes were evaluated for their in vitro cytotoxic activity against A549 (human lung cancer), MCF-7 (human breast cancer) and HTC15 (human colon cancer) cell lines. The cells were seeded at 4×10^3 cells/well in 100 μL DMEM containing 10% FBS in 96-wells tissue culture plate and incubated for 72 h at 37° C., 5% CO2 in the air and 90% relative humidity in the CO2 incubator. […] The medium of wells was discarded and 100 μL DMEM containing MTT (3-(4,5-Dimethylthiazol-2-yl)-2,5-diphenyltetrazolium Bromide) (5 mg/mL) was added to the wells and incubated in a CO2 incubator at 37° C. in dark for 4 h. After incubation, purple colored formazan (artificial chromogenic dye, a product of the reduction of water insoluble tetrazolium salts e.g., MMT by dehydrogenases and reductases) in the cells is produced and appeared as dark crystals in the bottom of the wells. The resultant crystals were solubilized by adding 100 μL of DMSO in each well. The solution was thoroughly mixed to dissolve the formazan crystals, producing a purple solution. The absorbance of the 96-wells plate was taken at 570 nm with Labsystems Multiskan EX-Enzyme-linked immunosorbent assay (EX-ELISA) reader against a reagent blank. The IC50 values were calculated from three independent experiments by generating an equation of logarithmic trendline of percentage cell viability against concentration compounds in Microsoft excel.
The MTT assay was performed in three independent experiments, each in triplicate. The cancer cell lines used are A549 (human lung cancer), MCF-7 (human breast cancer) and HTC15 (human colon cancer) cell lines.
On the technique in general: Tetrazolium dyes change colour on reduction, which living cells bring about.

The test system of data set [2] is MCF7 (human breast carcinoma) cell line. As to the kind of experiment: In vitro cytotoxic activity (MTT assay) against MCF7 cells. The following applies: for antiproliferative potency against MCF7 in words, compared with cisplatin / carboplatin: MCF7 cells, comparison of IC50 values; for IC50: MTT assay, cultures incubated 24 h with compound, ± standard deviation, three independent experiments. The protocol:
as §1
(§2) The IC50 values were obtained from curves between the complexes concentration and viability percentage of the cells, and are listed, in Table 3.
(§3) The experimental results are presented as the micro-mole concentration of 50%/0 cell growth inhibition (IC50) of each drug. The MTT assay was performed in three independent experiments, each in triplicate. The cancer cell lines used are A549 (human lung cancer), MCF-7 (human breast cancer) and HTC15 (human colon cancer) cell lines.

In data set [3] the test system is HCT15 (human colon adenocarcinoma) cell line. As to the kind of experiment: In vitro cytotoxic activity (MTT assay) against HCT15 cells. The following applies: for IC50: MTT assay, cultures incubated 24 h with compound, ± standard deviation, three independent experiments; for cytotoxicity against HCT15 compared in words with cisplatin / carboplatin: HCT15 cells, comparison of IC50 values. As to the method: as §1, §2, §3

Structures are written as SMILES.

In general, IC50 refers to the point on the concentration scale where inhibition reaches its midpoint. Consider `N.N.O=C([O-])C1(C(=O)[O-])CCC1.[Pt+2]` [Carboplatin, reference compound], for which the IC50 in data set [1] is 70 ± 2 µM; in data set [2] it was 63 ± 2 µM; in data set [3] it was 53 ± 2 µM. For the same molecule, the “antiproliferative potency against MCF7 in words, compared with cisplatin / carboplatin” value in data set [2] was “poor antiproliferative potency”.
As to `N.N.[Cl][Pt][Cl]` [Cisplatin, cis-diaminedichloridoplatinum(II), reference compound], the IC50 in data set [1] was 42 ± 2 µM; in data set [2], 23 ± 3 µM; in data set [3], 32 ± 2 µM.
Turning to `O=[N+]([O-])[O-].O=[N+]([O-])[O-].[NH3+][Pt-2]([NH3+])([S+]=C1NCCN1)[S+]=C1NCCN1` [Compound 1, cis-[Pt(NH3)2(Imt)2].2NO3], the “in vitro cytotoxicity against A549 compared in words with cisplatin / carboplatin” value in data set [1] was “comparable to cisplatin”. The IC50 was found to be 53 µM in data set [1], 101 ± 2 µM in data set [2] and 82 ± 1 µM in data set [3].
With `CN1CCNC1=[S+][Pt-2]([NH3+])([NH3+])[S+]=C1NCCN1C.O=[N+]([O-])[O-].O=[N+]([O-])[O-]` [Compound 2, cis-[Pt(NH3)2(MeImt)2].2NO3], the figures for the IC50 in data set [1], in data set [2] and in data set [3] were 85 ± 1 µM, 82 ± 1 µM and 75 ± 2 µM, respectively.
For `CN1CCN(C)C1=[S+][Pt-2]([NH3+])([NH3+])[S+]=C1N(C)CCN1C.O=[N+]([O-])[O-].O=[N+]([O-])[O-]` [Compound 3, cis-[Pt(NH3)2(Me2Imt)2].2NO3], the IC50 in data set [1] amounted to 68 ± 1 µM; in data set [2], 58 µM; in data set [3], 54 ± 1 µM. Moreover, the “antiproliferative potency against MCF7 in words, compared with cisplatin / carboplatin” value in data set [2] is given as “greater cytotoxic effect than carboplatin”. Further, the “cytotoxicity against HCT15 compared in words with cisplatin / carboplatin” value in data set [3] is recorded as “nearly same value as carboplatin”.
With `CCN1CCN(CC)C1=[S+][Pt-2]([NH3+])([NH3+])[S+]=C1N(CC)CCN1CC.O=[N+]([O-])[O-].O=[N+]([O-])[O-]` [Compound 4, cis-[Pt(NH3)2(Et2Imt)2].2NO3], the results for the IC50 in data set [1], in data set [2] and in data set [3] were 108 ± 2 µM, 97 ± 3 µM and 97 ± 3 µM, respectively.
For the molecule `CCCN1CCNC1=[S+][Pt-2]([NH3+])([NH3+])[S+]=C1NCCN1CCC.O=[N+]([O-])[O-].O=[N+]([O-])[O-]` [Compound 5, cis-[Pt(NH3)2(PrImt)2].2NO3], the “in vitro cytotoxicity against A549 compared in words with cisplatin / carboplatin” value in data set [1] was “nearly same as that of carboplatin”. For the same molecule, the IC50 was found to be 72 ± 2 µM in data set [1], 74 ± 2 µM in data set [2] and 51 ± 2 µM in data set [3]. Moreover, in data set [3], the “cytotoxicity against HCT15 compared in words with cisplatin / carboplatin” value is on record as “lower IC50 values”.
As to `CC(C)N1CCNC1=[S+][Pt-2]([NH3+])([NH3+])[S+]=C1NCCN1C(C)C.O=[N+]([O-])[O-].O=[N+]([O-])[O-]` [Compound 6, cis-[Pt(NH3)2(iPrImt)2].2NO3], in data set [1], the “in vitro cytotoxicity against A549 compared in words with cisplatin / carboplatin” value was “comparable to cisplatin” and the IC50 is 55 µM. Further, the concentration for half-maximal inhibition (IC50) in data set [2] is 81 ± 3 µM. In data set [3], the “cytotoxicity against HCT15 compared in words with cisplatin / carboplatin” value is “lower IC50 values” and the IC50 is 48 ± 1 µM.
Taken in the same sequence, the figures for `CC(C)N1CCN(C(C)C)C1=[S+][Pt-2]([NH3+])([NH3+])[S+]=C1N(C(C)C)CCN1C(C)C.O=[N+]([O-])[O-].O=[N+]([O-])[O-]` [Compound 7, cis-[Pt(NH3)2(iPr2Imt)2].2NO3] were “comparable to cisplatin”, 50 µM, 78 ± 2 µM, “lower IC50 values” and 52 ± 1 µM.
For the molecule `O=[N+]([O-])[O-].O=[N+]([O-])[O-].[NH3+][Pt-2]([NH3+])([S+]=C1NCCCN1)[S+]=C1NCCCN1` [Compound 8, cis-[Pt(NH3)2(Diaz)2].2NO3], the “in vitro cytotoxicity against A549 compared in words with cisplatin / carboplatin” value in data set [1] is listed as “nearly same as that of carboplatin”. Also, the IC50 in data set [1] was 75 ± 2 µM; in data set [2], 90 ± 2 µM; in data set [3], 76 ± 1 µM.
Taken in the same sequence, the figures for `CCN1CCCNC1=[S+][Pt-2]([NH3+])([NH3+])[S+]=C1NCCCN1CC.O=[N+]([O-])[O-].O=[N+]([O-])[O-]` [Compound 9, cis-[Pt(NH3)2(EtDiaz)2].2NO3] were “nearly same as that of carboplatin”, 73 ± 1 µM, 103 ± 3 µM and 90 ± 2 µM.
With `O=[N+]([O-])[O-].O=[N+]([O-])[O-].[NH3+][Pt-2]([NH3+])([S+]=C1NCCCCN1)[S+]=C1NCCCCN1` [Compound 10, cis-[Pt(NH3)2(Diap)2].2NO3], the “in vitro cytotoxicity against A549 compared in words with cisplatin / carboplatin” value in data set [1] is given as “comparable to cisplatin”. Also, the results for the IC50 in data set [1], in data set [2] and in data set [3] were 52 µM, 71 ± 1 µM and 41 ± 1 µM, respectively. For the same molecule, the “cytotoxicity against HCT15 compared in words with cisplatin / carboplatin” value in data set [3] is given as “lower IC50 values”.
